Experimental data from patent US10167284B2, “Spirocyclic compounds as agonists of the muscarinic M1 receptor and/or M4 receptor” (HEPTARES THERAPEUTICS LIMITED, priority 2015, dated 2019).

Tests used:
[1] = target: T1, human muscarinic M4 receptor (Homo sapiens, UniProt P08173); test: Alphascreen Surefire phospho-ERK1/2 functional assay, M4; format: cell-based; settings: for M4 % Emax cf. ACh / EC50: CHO cells stably expressing human M4; for M4 % Emax cf. ACh / Emax: Emax relative to ACh; for EC50: phospho-ERK1/2, read-out: pEC50 M4 (converted); for Emax: CHO, read-out: M4 % Emax cf. ACh, CHO cells stably expressing human M4
T1 construct: expressed in transfected cells
T1 sequence (P08173 1-479): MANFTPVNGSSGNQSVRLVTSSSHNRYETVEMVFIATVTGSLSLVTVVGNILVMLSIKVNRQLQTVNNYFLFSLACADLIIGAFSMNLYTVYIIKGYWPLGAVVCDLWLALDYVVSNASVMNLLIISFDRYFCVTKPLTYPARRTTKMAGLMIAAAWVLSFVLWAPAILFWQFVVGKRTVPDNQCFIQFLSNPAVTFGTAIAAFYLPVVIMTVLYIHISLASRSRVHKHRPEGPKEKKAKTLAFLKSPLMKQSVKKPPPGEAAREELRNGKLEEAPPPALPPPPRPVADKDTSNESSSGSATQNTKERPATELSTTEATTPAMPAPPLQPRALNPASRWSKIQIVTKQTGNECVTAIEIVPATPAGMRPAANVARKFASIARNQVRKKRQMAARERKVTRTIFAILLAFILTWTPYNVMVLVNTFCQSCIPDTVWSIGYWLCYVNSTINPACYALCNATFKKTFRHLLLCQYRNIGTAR

[2] = target: T2, human muscarinic M1 receptor (Homo sapiens, UniProt P11229); test: Alphascreen Surefire phospho-ERK1/2 functional assay, M1; format: cell-based; settings: for M1 % Emax cf. ACh / EC50: CHO cells stably expressing human M1; for M1 % Emax cf. ACh / Emax: Emax relative to ACh; for EC50: phospho-ERK1/2, read-out: pEC50 M1 (converted); for Emax: CHO, read-out: M1 % Emax cf. ACh, CHO cells stably expressing human M1
T2 construct: expressed in transfected cells
T2 sequence (P11229 1-460): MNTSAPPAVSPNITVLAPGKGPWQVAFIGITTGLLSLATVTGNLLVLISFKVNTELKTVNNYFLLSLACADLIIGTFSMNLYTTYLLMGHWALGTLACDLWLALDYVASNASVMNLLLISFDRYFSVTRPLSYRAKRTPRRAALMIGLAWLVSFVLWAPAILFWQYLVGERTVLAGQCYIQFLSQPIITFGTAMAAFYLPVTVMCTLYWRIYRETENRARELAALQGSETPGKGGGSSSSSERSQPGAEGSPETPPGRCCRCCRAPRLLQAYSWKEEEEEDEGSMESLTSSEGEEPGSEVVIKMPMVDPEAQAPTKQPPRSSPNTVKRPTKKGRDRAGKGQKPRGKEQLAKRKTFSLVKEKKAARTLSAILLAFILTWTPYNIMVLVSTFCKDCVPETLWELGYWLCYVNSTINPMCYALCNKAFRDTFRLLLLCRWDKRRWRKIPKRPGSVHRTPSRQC
Procedure: CHO cells stably expressing the human muscarinic M1, M2, M3 or M4 receptor were plated (25K/well) onto 96-well tissue culture plates in MEM-alpha+10% dialysed FBS. Once adhered, cells were serum-starved overnight. Agonist stimulation was performed by the addition of 5 μL agonist to the cells for 5 min (37° C.). Media was removed and 50 μL of lysis buffer added. After 15 min, a 4 μL sample was transferred to 384-well plate and 7 μL of detection mixture added. Plates were incubated for 2 h with gentle agitation in the dark and then read on a PHERAstar plate reader.
pEC50 and Emax figures were calculated from the resulting data for each receptor subtype.

SMILES	M4 % Emax cf. ACh [1]	EC50 [1]	M1 % Emax cf. ACh [2]	EC50 [2]	Emax [1]	Emax [2]
CCC1NC(=O)CC12CCN(C1CC3(CCN(C(=O)OC)C3)C1)CC2 (single isomer, unassigned) [3-4 Isomer 1]	(30) %	316 nM	(35) %	3160 nM		
CCC1NC(=O)CC12CCN(C1CC3(CCN(C(=O)OC)C3)C1)CC2 (single isomer, unassigned) [3-4 Isomer 2]	(36) %	200 nM	(71) %	2000 nM		
CCOC(=O)N1CCC2(CC(N3CCC4(CC3)CNC(=O)O4)C2)C1 (single isomer, unassigned) [4-3 Isomer 1]	(37) %	316 nM	(91) %	251 nM		
CC(C)OC(=O)N1CCC2(CC(N3CCC4(CC3)CNC(=O)O4)C2)C1 (single isomer, unassigned) [4-4 Isomer 2]		398 nM		631 nM	24%	52%
CCC1N(CC)C(=O)OC12CCN(C1CC3(CCN(C(=O)OC)C3)C1)CC2 (single isomer, unassigned) [4-21 Isomer 2 (racemic)]		200 nM		794 nM	36%	77%
CCOC(=O)N1CCC2(CC(N3CCC4(CC3)OC(=O)N(CC)C4CC)C2)C1 (single isomer, unassigned) [4-22 Isomer 2]	(2) %	> 20000 nM	(1) %	> 20000 nM		
CCCN1C(=O)OC2(CCN(C3CC4(CCN(C(=O)OCC)C4)C3)CC2)C1CC (single isomer, unassigned) [4-23 Isomer 1]	(33) %	501 nM	(9) %	> 20000 nM		
CCCN1C(=O)OC2(CCN(C3CC4(CCN(C(=O)OCC)C4)C3)CC2)C1CC (single isomer, unassigned) [4-23 Isomer 2]	(3) %	> 20000 nM	(5) %	> 20000 nM		
CCOC(=O)N1CCC2(CC(N3CCC4(CC3)OC(=O)N(CC3CC3)C4CC)C2)C1 (single isomer, unassigned) [4-25 Isomer 2 (racemic)]		126 nM		794 nM	69%	73%
CCOC(=O)N1CCC2(CC(N3CCC4(CC3)OC(=O)N(CC#N)C4(C)C)C2)C1 (single isomer, unassigned) [4-42 Isomer 2]		200 nM		> 20000 nM	52%	16%
COC(=O)N1CCC2(CC(N3CCC4(CC3)OC(=O)N3CCCC34)C2)C1 (single isomer, unassigned) [4-45 Isomer 2]		316 nM		1000 nM	36%	59%
CCOC(=O)N1CC2(CC(N3CCC4(CC3)CNC(=O)C4)C2)C1 [Example 1-1, ethyl 6-(3-oxo-2,8-diazaspiro[4.5]dec-8-yl)-2-azaspiro[3.3]heptane-2-carboxylate]		> 20000 nM		316 nM	66%	107%
CCOC(=O)N1CC2(CC(N3CCC4(CC3)OC(=O)NC4(C)C)C2)C1 [Example 2-3, ethyl 6-(4,4-dimethyl-2-oxo-1-oxa-3,8-diazaspiro[4.5]decan-8-yl)-2-azaspiro[3.3]heptane-2-carboxylate]		1000 nM		3160 nM	73%	92%
CCOC(=O)N1CC2(CC(N3CCC4(CC3)OC(=O)N3CCCC34)C2)C1 (centres unmarked) [Example 2-5, ethyl 6-(3′-oxotetrahydro-1H-spiro[piperidine-4,1′-pyrrolo[1,2-c][1,3]oxazol]-1-yl)-2-azaspiro[3.3]heptane-2-carboxylate]		126 nM		1000 nM	34%	28%

Other lines, results leading:

M4 % Emax cf. ACh [1]	EC50 [1]	M1 % Emax cf. ACh [2]	EC50 [2]	Emax [1]	Emax [2]	SMILES
	398 nM		1260 nM	58%	63%	CCOC(=O)N1CCC2(CC(N3CCC4(CC3)CN(C(C)C)C(=O)O4)C2)C1 (single isomer, unassigned) [4-8 Isomer 2]
	631 nM		1000 nM	76%	104%	CCOC(=O)N1CCC2(CC(N3CCC4(CC3)CN(CC(C)C)C(=O)O4)C2)C1 (single isomer, unassigned) [4-9 Isomer 2]
(1) %	> 20000 nM	(0) %	> 20000 nM			CCOC(=O)N1CCC2(CC(N3CCC4(CC3)OC(=O)NC4CC)C2)C1 (single isomer, unassigned) [4-12 Isomer 2]
	158 nM		501 nM	87%	85%	CCOC(=O)N1CCC2(CC(N3CCC4(CC3)OC(=O)NC4C3CCC3)C2)C1 (single isomer, unassigned) [4-15 Isomer 1 (racemic)]
	794 nM		200 nM	72%	98%	CCOC(=O)N1CCC2(CC(N3CCC4(CC3)OC(=O)NC4Cc3ccccn3)C2)C1 (single isomer, unassigned) [4-19 Isomer 2 (racemic)]
(42) %	501 nM	(57) %	2000 nM			CCOC(=O)N1CCC2(CC(N3CCC4(CC3)OC(=O)N(C)C4CC)C2)C1 (single isomer, unassigned) [4-20 Isomer 1]
(9) %	> 20000 nM	(16) %	> 20000 nM			CCOC(=O)N1CCC2(CC(N3CCC4(CC3)OC(=O)N(C)C4CC)C2)C1 (single isomer, unassigned) [4-20 Isomer 2]
(18) %	> 20000 nM	(13) %	> 20000 nM			CCOC(=O)N1CCC2(CC(N3CCC4(CC3)OC(=O)N(CC)C4CC)C2)C1 (single isomer, unassigned) [4-22 Isomer 1]
(59) %	251 nM	(65) %	10000 nM			CCOC(=O)N1CCC2(CC(N3CCC4(CC3)OC(=O)NC4(C)C)C2)C1 (single isomer, unassigned) [4-27 Isomer 1]
	158 nM		1260 nM	63%	49%	CCOC(=O)N1CCC2(CC(N3CCC4(CC3)OC(=O)NC43CC(F)(F)C3)C2)C1 (single isomer, unassigned) [4-30 Isomer 1]
	31.6 nM		1000 nM	108%	57%	CCOC(=O)N1CCC2(CC(N3CCC4(CC3)OC(=O)N(CC)C4(C)C)C2)C1 (single isomer, unassigned) [4-35 Isomer 2]
(13) %	> 20000 nM	(29) %	794 nM			CCCN1C(=O)OC2(CCN(C3CC4(CCN(C(=O)OCC)C4)C3)CC2)C1(C)C (single isomer, unassigned) [4-37 Isomer 2]
	> 20000 nM		2000 nM	20%	56%	CCOC(=O)N1CCC2(CC(N3CCC4(CC3)CC(=O)NN4C(C)C)C2)C1 (single isomer, unassigned) [6-5 Isomer 2]
(10) %	> 20000 nM	(36) %	501 nM			CCOC(=O)N1CCC2(CC(N3CCC4(CC3)CC(=O)NN4Cc3ccccc3)C2)C1 (single isomer, unassigned) [6-6 Isomer 1]
	39.8 nM		1260 nM	109%	90%	CCCN1N(C)C(=O)CC12CCN(C1CC3(CCN(C(=O)OCC)C3)C1)CC2 (single isomer, unassigned) [6-10 Isomer 2]
